For five compounds, MIC results are on record in ChEMBL document CHEMBL4270488, “Antibacterial Compounds from Marine Bacteria, 2010-2015” (J Nat Prod, 2017).

Test [1] concerns Mycobacterium tuberculosis variant bovis. Nature of the test: Antibacterial activity against Mycobacterium bovis BCG str. Pasteur 1173P2 incubated for 3 days by GFP based fluorescence assay. It counts as functional. To be noted: 72 h.
The test system is the same in test [2]. Nature of the test: Antibacterial activity against Mycobacterium bovis BCG str. Pasteur 1173P2 incubated for 16 hrs. It counts as functional.

Converted amounts (≈) assume the structure as drawn. *1 amine or outer side, *2 acyl side, *3 side chain or, on linkers, in order; H or OH if unused. Where a SMILES comes first, the peptide text is derived from it. Bridges are numbered along the chain shown (N, C = ends). Roman numbers before positions name the chains, in order. [ ]: non-standard residue; d: D form. Actinocin(1to9) = Cc1c2oc3c(C)ccc(C(=O)[*:2])c3nc-2c(C(=O)[*:1])c(N)c1=O; Pro(4-oxo) = O=C1CN[C@H](C(=O)O)C1; NMeV = CN[C@H](C(=O)O)C(C)C; Sar = CNCC(=O)O

Compound `Cc1c2oc3c(C)ccc(C(=O)N[C@@H]4C(=O)N[C@H](C(C)C)C(=O)N5CCC[C@H]5C(=O)N(C)CC(=O)N(C)[C@@H](C(C)C)C(=O)O[C@@H]4C)c3nc-2c(C(=O)N[C@@H]2C(=O)N[C@H](C(C)C)C(=O)N3CCC[C@H]3C(=O)N(C)CC(=O)N(C)[C@@H](C(C)C)C(=O)O[C@@H]2C)c(N)c1=O` [DACTINOMYCIN] (I: T[dV]P[Sar][NMeV] / II: T[dV]P[Sar][NMeV]; ester I:1-I:C, II:1-II:C; linker I:N-II:N via Actinocin(1to9)) returned an MIC in test [1] of 0.2 to 0.5 µg/mL (≈ 0.159 to 0.398 µM).

Consider `COC(=O)N[C@H]1[C@@H](C)O[C@@H](O[C@H]2C/C=C(\C)[C@@H]3C=C[C@@H]4[C@@H](O[C@H]5C[C@@H](O[C@H]6C[C@@H](O)[C@@H](O[C@@H]7C[C@@H](O)[C@@H](OC)[C@H](C)O7)[C@H](C)O6)[C@@H](O)[C@H](C)O5)[C@@H](C)C[C@H](C)[C@H]4[C@]3(C)C(=O)C3=C(O)[C@@]4(C[C@@H](C)C(CO)=C[C@H]4/C=C/2C)OC3=O)C[C@]1(C)N`, for which, in test [2], the MIC lay in the range of 0.8 to 1.5 µg/mL (≈ 0.691 to 1.3 µM). With `Cc1c2oc3c(C)ccc(C(=O)N[C@@H]4C(=O)N[C@H](C(C)C)C(=O)N5CCC[C@H]5C(=O)N(C)CC(=O)N(C)[C@@H](C(C)C)C(=O)O[C@@H]4C)c3nc-2c(C(=O)N[C@@H]2C(=O)N[C@H](C(C)C)C(=O)N3CC(O)C[C@H]3C(=O)N(C)CC(=O)N(C)[C@@H](C(C)C)C(=O)O[C@@H]2C)c(N)c1=O` (stereo not given in full), the MIC in test [1] was 0.2 to 0.5 µg/mL (≈ 0.157 to 0.393 µM). Regarding `COC(=O)N[C@H]1[C@@H](C)O[C@@H](O[C@H]2C/C=C(\C)[C@@H]3C=C[C@@H]4[C@@H](O[C@H]5C[C@@H](O[C@H]6C[C@@H](O)[C@@H](O[C@@H]7C[C@@H](O)[C@@H](OC)[C@H](C)O7)[C@H](C)O6)[C@@H](O)[C@H](C)O5)[C@@H](C)C[C@H](C)[C@H]4[C@]3(C)C(=O)C3=C(O)[C@@]4(C[C@@H](C)C(CO)=C[C@H]4/C=C/2C)OC3=O)C[C@]1(C)[N+](=O)[O-]`, the MIC in test [2] is 0.8 to 1.5 µg/mL (≈ 0.674 to 1.26 µM). As to `Cc1c2oc3c(C)ccc(C(=O)N[C@@H]4C(=O)N[C@H](C(C)C)C(=O)N5CCC[C@H]5C(=O)N(C)CC(=O)N(C)[C@@H](C(C)C)C(=O)O[C@@H]4C)c3nc-2c(C(=O)N[C@@H]2C(=O)N[C@H](C(C)C)C(=O)N3CC(=O)C[C@H]3C(=O)N(C)CC(=O)N(C)[C@@H](C(C)C)C(=O)O[C@@H]2C)c(N)c1=O` (I: T[dV][Pro(4-oxo)][Sar][NMeV] / II: T[dV]P[Sar][NMeV]; ester I:1-I:C, II:1-II:C; linker I:N-II:N via Actinocin(1to9)), in test [1], the MIC fell in the range of 0.2 to 0.5 µg/mL (≈ 0.158 to 0.394 µM).

Usually MIC stands for the least concentration at which growth counts as inhibited. The low end stands for inhibition by little substance, the high end for a need for much substance.
